Assay results from patent US20100016598A1 (WYETH, priority 2008, published 2010).

Tests used:
[1] = target: T1, alpha3 (ganglionic) nACh receptors (Homo sapiens, UniProt P30926+P32297); experiment: calcium-monitoring FLIPR selectivity assay using the native SH-SY5Y cell line; type: cell-based; details: read-out: Alpha 3 EC50
T1 construct: using the native SH-SY5Y cell line; endogenous in cells; host or cells: SH-SY5Y
Source text: Functional FLIPR assays were developed in order to test the selectivity of compounds against the alpha1 (muscular) and alpha3 (ganglionic) nACh receptors and the structurally related 5-HT3 receptor. […] In order to test selectivity against the 5-HT3 receptor, a recombinant cell line was constructed expressing the human 5-HT3A receptor in HEK 293 cells and a calcium-monitoring FLIPR assay employed.

[2] = target: T2, alpha7 nicotinic acetylcholine receptor (Rattus norvegicus, UniProt Q05941); experiment: functional FLIPR assay, alpha7 nAChR stably expressed in GH4C1 cells; type: cell-based; details: GH4C1 cell line expressing the alpha7 nAChR; concentration-response curves; read-out: Alpha 7 EC50
T2 construct: expressed in transfected cells
T2 sequence (Q05941 23-502): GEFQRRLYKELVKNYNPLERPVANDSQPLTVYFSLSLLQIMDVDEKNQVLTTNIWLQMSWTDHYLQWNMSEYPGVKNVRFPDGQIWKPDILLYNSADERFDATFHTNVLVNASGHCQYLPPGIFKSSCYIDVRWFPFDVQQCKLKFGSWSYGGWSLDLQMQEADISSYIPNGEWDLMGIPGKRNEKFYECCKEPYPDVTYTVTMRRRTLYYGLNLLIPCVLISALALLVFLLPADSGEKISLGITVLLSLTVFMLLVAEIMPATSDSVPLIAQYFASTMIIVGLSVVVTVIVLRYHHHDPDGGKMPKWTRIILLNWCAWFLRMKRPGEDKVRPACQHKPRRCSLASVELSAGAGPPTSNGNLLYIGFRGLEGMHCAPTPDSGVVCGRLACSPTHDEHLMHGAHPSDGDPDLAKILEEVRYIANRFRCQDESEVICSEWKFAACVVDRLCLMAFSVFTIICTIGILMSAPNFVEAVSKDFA

T1 sequence (P32297 32-505): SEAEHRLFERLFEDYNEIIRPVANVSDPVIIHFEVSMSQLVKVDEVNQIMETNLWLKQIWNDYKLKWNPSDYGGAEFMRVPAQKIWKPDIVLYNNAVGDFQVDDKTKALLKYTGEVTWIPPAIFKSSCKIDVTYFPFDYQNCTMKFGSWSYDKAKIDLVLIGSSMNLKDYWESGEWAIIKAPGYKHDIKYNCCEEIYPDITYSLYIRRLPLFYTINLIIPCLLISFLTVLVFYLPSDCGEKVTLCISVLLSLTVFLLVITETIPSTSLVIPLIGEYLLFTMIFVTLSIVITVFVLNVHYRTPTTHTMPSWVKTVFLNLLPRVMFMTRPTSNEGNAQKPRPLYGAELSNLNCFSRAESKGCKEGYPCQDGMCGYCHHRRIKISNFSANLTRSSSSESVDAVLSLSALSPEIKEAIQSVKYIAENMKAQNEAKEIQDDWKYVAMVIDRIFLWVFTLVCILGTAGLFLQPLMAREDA
T1 sequence (P30926 22-498): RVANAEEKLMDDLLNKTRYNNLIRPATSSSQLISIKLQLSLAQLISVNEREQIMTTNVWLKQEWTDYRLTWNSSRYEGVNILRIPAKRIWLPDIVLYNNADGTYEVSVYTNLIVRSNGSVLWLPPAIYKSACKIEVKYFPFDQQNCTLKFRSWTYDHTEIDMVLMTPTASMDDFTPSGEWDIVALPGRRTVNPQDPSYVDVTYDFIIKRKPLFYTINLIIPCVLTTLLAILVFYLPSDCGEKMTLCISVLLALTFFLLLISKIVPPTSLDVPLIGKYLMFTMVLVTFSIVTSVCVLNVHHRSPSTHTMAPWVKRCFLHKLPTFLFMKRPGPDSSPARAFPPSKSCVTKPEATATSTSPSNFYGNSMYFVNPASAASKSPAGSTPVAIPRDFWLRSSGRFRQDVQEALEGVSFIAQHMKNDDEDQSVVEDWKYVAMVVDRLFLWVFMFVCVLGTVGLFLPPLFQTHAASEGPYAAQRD

EC50 [1]: 5670 nM
EC50 [2]: 60 nM
SMILES: COc1ncccc1-c1ccc(NC(=O)NCCCCN2CCCCC2)cc1
